Values after ≈ are worked out from the molar mass of the structure shown. Active and inactive are the calls of the source. The calls are words filed in the database; no cut-off is given here.
Key:
K562 [1] = assay: Antiproliferative activity against human K562 cells assessed as reduction in cell viability at 10 ug/ml measured after 24 hrs by MTT assay relative to control; assay type: functional
ATN-1 = assay: Antiproliferative activity against human ATN1 cells assessed as reduction in cell viability measured after 24 hrs by MTT assay; assay type: functional; settings: ATN-1, 24 h, read-out: ED50 (the source's name)
Homo sapiens [2] = species: Homo sapiens; assay: Inhibition of NF-kappaB localization in nucleus of human L540 cells at 0.7 ug/ml measured after 5 to 24 hrs by DAPI staining immunofluorescence microscopy
Homo sapiens [3] = species: Homo sapiens; assay: Inhibition of NF-kappaB localization in nucleus of human L540 cells at 10 ug/ml measured after 5 to 24 hrs by DAPI staining immunofluorescence microscopy
Homo sapiens [4] = species: Homo sapiens; assay: Antiproliferative activity against human KMM1 cells assessed as reduction in cell viability at 25 to 100 ng/ml measured after 24 to 48 hrs by MTT assay; assay type: functional, cell-based
HeLa [5] = assay: Inhibition of TNF alpha stimulated NF-kappaB localization in nucleus of human HeLa cells transfected with GFP-fused RelA and IKBalpha expressing plasmid incubated for 2 hrs followed by TNF alpha stimulation by immunofluorescence microscopy; assay type: cell-based
KM-H2 = assay: Antiproliferative activity against human KM-H2 cells assessed as reduction in cell viability at 25 to 100 ng/ml measured after 24 to 48 hrs by MTT assay; assay type: functional, cell-based
[6] = Acute toxicity in rat; settings: in vivo
HeLa [7] = assay: Inhibition of TNF alpha stimulated NF-kappaB localization in nucleus of human HeLa cells transfected with GFP-fused RelA C38S and IKBalpha expressing plasmid incubated for 2 hrs followed by TNF alpha stimulation by immunofluorescence microscopy; assay type: cell-based
Homo sapiens [8] = species: Homo sapiens; assay: Antiproliferative activity against human KK1 cells assessed as reduction in cell viability at 25 to 100 ng/ml measured after 24 to 48 hrs by MTT assay; assay type: functional, cell-based
HeLa [9] = assay: Inhibition of TNF alpha stimulated NF-kappaB in human HeLa cells transfected with GFP-fused p50 mutant and IKBalpha expressing plasmid incubated for 2 hrs followed by TNF alpha stimulation by immunofluorescence microscopy; assay type: cell-based
Homo sapiens [10] = species: Homo sapiens; assay: Inhibition of TNF alpha stimulated NF-kappaB in human FL cells transfected with kappaB luciferase at 5 to 10 ug/ml incubated for 4 hrs followed by TNF alpha stimulation measured after 3 hrs by dual luciferase reporter gene assay; assay type: cell-based
[11] = target: T1, Importin subunit alpha-4 (Homo sapiens) (UniProt O00505); assay: Inhibition of importin alpha 3 in human KM-H2 cells at 0.2 ug/ml after 6 hrs by Western blot analysis (reference value: 1); assay type: cell-based
T1 sequence (whole entry): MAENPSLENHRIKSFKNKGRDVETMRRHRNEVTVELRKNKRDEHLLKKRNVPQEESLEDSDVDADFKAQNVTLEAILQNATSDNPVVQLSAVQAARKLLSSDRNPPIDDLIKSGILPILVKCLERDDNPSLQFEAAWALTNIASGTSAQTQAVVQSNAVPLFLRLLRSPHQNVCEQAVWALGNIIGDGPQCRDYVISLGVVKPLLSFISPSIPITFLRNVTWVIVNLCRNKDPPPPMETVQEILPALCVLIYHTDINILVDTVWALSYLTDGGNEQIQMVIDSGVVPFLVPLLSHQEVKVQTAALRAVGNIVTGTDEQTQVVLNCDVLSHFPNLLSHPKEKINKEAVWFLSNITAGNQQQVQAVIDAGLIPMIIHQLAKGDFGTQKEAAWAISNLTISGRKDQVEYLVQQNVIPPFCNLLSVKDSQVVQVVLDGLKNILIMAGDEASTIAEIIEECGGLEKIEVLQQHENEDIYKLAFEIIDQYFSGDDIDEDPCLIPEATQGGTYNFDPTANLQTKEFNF

Homo sapiens [12] = species: Homo sapiens; assay: Antiproliferative activity against human KOB cells assessed as reduction in cell viability at 25 to 100 ng/ml measured after 24 to 48 hrs by MTT assay; assay type: functional, cell-based
Homo sapiens [13] = species: Homo sapiens; assay: Inhibition of NF-kappaB localization in nucleus of human L540 cells at 0.2 ug/ml measured after 5 hrs by DAPI staining immunofluorescence microscopy
U-266 = assay: Antiproliferative activity against human U266 cells assessed as reduction in cell viability at 25 to 100 ng/ml measured after 24 to 48 hrs by MTT assay; assay type: functional, cell-based
Homo sapiens [14] = species: Homo sapiens; assay: Inhibition of TNF alpha stimulated NF-kappaB in human FL cells transfected with kappaB luciferase incubated for 2 hrs followed by TNF alpha stimulation measured after 3 hrs by dual luciferase reporter gene assay; assay type: cell-based
HeLa [15] = assay: Inhibition of TNF alpha stimulated NF-kappaB in human HeLa cells transfected with GFP-fused RelA mutant and IKBalpha expressing plasmid incubated for 2 hrs followed by TNF alpha stimulation by immunofluorescence microscopy; assay type: cell-based
[16] = target: Transcription factor p65 (Homo sapiens) (UniProt Q04206); assay: Inhibition of NF-kappaB RelA association with importin alpha in human KM-H2 cells at 0.2 ug/ml after 6 hrs by immunoprecipitation method; assay type: cell-based
Chain of Transcription factor p65 (Homo sapiens) (Q04206 whole entry): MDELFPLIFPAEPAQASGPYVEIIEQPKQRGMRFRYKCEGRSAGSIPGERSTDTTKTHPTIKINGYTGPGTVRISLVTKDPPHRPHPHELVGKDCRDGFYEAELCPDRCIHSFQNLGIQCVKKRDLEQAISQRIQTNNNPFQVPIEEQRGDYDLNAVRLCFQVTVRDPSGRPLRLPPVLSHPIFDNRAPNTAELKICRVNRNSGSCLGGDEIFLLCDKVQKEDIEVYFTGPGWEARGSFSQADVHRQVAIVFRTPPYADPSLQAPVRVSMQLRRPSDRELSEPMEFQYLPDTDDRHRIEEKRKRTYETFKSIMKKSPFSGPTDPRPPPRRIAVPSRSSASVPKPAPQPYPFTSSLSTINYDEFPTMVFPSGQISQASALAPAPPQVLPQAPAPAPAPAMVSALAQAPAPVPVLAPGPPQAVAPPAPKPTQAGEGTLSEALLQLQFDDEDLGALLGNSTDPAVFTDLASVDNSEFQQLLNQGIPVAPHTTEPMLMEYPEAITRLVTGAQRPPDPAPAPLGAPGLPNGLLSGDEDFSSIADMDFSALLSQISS

K562 [17] = assay: Antiproliferative activity against human K562 cells assessed as reduction in cell viability at 25 to 100 ng/ml measured after 24 to 48 hrs by MTT assay; assay type: functional, cell-based
L-540 = assay: Antiproliferative activity against human L540 cells assessed as reduction in cell viability at 25 to 100 ng/ml measured after 24 to 48 hrs by MTT assay; assay type: functional, cell-based
HeLa [18] = assay: Antiproliferative activity against human HeLa cells assessed as reduction in cell viability at 25 to 100 ng/ml measured after 24 to 48 hrs by MTT assay; assay type: functional, cell-based
Homo sapiens [19] = species: Homo sapiens; assay: Inhibition of NF-kappaB localization in nucleus of human L540 cells at 5 ug/ml measured after 5 hrs by DAPI staining immunofluorescence microscopy
Homo sapiens [20] = species: Homo sapiens; assay: Inhibition of NF-kappaB localization in nucleus of human L540 cells at 3 ug/ml measured after 5 hrs by DAPI staining immunofluorescence microscopy
Homo sapiens [21] = species: Homo sapiens; assay: Inhibition of NF-kappaB localization in nucleus of human L540 cells at 6 ug/ml measured after 5 hrs by DAPI staining immunofluorescence microscopy
Homo sapiens [22] = species: Homo sapiens; assay: Inhibition of NF-kappaB localization in nucleus of human L540 cells at 1.5 ug/ml measured after 5 hrs by DAPI staining immunofluorescence microscopy

SMILES | Activity (K562 [1]) | EC50 (ATN-1) | further results
C=C/[N+]([O-])=N/CCCCCCCC(C)=O | <20% | 2.26 µg/mL (≈ 10.6 µM) | –
CC1(C)CCC2=C(O1)c1ccccc1C(=O)C2=O | – | – | inhibition (Homo sapiens [2]): inactive
C=C/[N+]([O-])=N/CCCCCCCCOS(C)(=O)=O | <20% | 1.18 µg/mL (≈ 4.24 µM) | –
C=C/[N+]([O-])=N/CCCCCCCCn1ccnn1 | <20% | 1.01 µg/mL (≈ 4.02 µM) | –
C=C/[N+]([O-])=N/CCCCCCCCn1cc([Si](C)(C)C)nn1 | <20% | 0.68 µg/mL (≈ 2.1 µM) | –
C=CC(C)(C)[C@@]12C=C(OC)C(=O)N3/C(=C/c4c[nH]cn4)C(=O)N[C@]31N(OC)c1ccccc12 | – | – | inhibition (Homo sapiens [3]): inactive
C=C/[N+]([O-])=N/CCCCCCCC(=O)CCCCC[C@@H](C)CC | <20% | 1.65 µg/mL (≈ 5.08 µM) | –
C=C/[N+]([O-])=N/CCCCCCCCn1cc(-c2cc3ccccc3c3ccccc23)nn1 | <20% | 1.03 µg/mL (≈ 2.41 µM) | –
C=C/[N+]([O-])=N/CCCCCCCCn1cc(CCBr)nn1 | <20% | 0.97 µg/mL (≈ 2.71 µM) | –
C#CC(=O)CCCCCCC/N=[N+](\[O-])C=C | <20% | 0.03 µg/mL (≈ 0.135 µM) | Activity (Homo sapiens [4]): Active; inhibition (HeLa [5]): Active; Activity (KM-H2): Active; LD50 [6]: > 300 mg/kg; inhibition (HeLa [7]): inactive; Activity (Homo sapiens [8]): Active; inhibition (HeLa [9]): Active; inhibition (Homo sapiens [10]): Active; fold change (FC) [11]: 0.53; Activity (Homo sapiens [12]): Active; inhibition (Homo sapiens [13]): Active; Activity (U-266): Active; inhibition (Homo sapiens [14]): Dose-dependent effect; inhibition (HeLa [15]): inactive; inhibition [16]: Active; Activity (K562 [17]): Active; Activity (L-540): Active; Activity (HeLa [18]): Active
C=C/[N+]([O-])=N/CCCCCCCCn1nncc1CCC(C)C | <20% | 0.85 µg/mL (≈ 2.64 µM) | –
C=C/[N+]([O-])=N/CCCCCCCC(=O)CCc1ccccc1 | <20% | 1.09 µg/mL (≈ 3.6 µM) | –
C=C/[N+]([O-])=N/CCCCCCCC(=O)CCCCCC(C)C | <20% | 1.82 µg/mL (≈ 5.86 µM) | inhibition (Homo sapiens [10]): Active; inhibition (Homo sapiens [3]): Active
C=C/[N+]([O-])=N/CCc1ccccc1 | <20% | 1.03 µg/mL (≈ 5.84 µM) | inhibition (Homo sapiens [19]): Active
C=C/[N+]([O-])=N/CCCCCCCCO | <20% | 1.05 µg/mL (≈ 5.24 µM) | –
C=C/[N+]([O-])=N/CCCCCCCCn1cc(C(C)(C)O)nn1 | <20% | 1.15 µg/mL (≈ 3.72 µM) | –
C=C/[N+]([O-])=N/CCCCCCCCn1cc(C2(O)CCCCC2)nn1 | <20% | 1.31 µg/mL (≈ 3.75 µM) | –

SMILES | Activity (K562 [1]) | EC50 (ATN-1) | further results
C=C/[N+]([O-])=N/CCCCCCCC(=O)CCCCCC | <20% | 1.29 µg/mL (≈ 4.57 µM) | –
C=C/[N+]([O-])=N/CCCCCCCCn1cc(C2CC2)nn1 | <20% | 0.84 µg/mL (≈ 2.88 µM) | inhibition (Homo sapiens [20]): Active
C=C/[N+]([O-])=N/CCCCCCCCn1cc(CCCCO)nn1 | <20% | 0.71 µg/mL (≈ 2.2 µM) | inhibition (Homo sapiens [20]): Active
C=C/[N+]([O-])=N/CCCCCCCCn1cc(-c2cccnc2)nn1 | <20% | 0.82 µg/mL (≈ 2.5 µM) | –
C=C/[N+]([O-])=N/CCCCCCCCn1cc(CCCC)nn1 | <20% | 0.69 µg/mL (≈ 2.24 µM) | –
C=C/[N+]([O-])=N/CCCCCCCCn1cc(C(C)C)nn1 | <20% | 0.84 µg/mL (≈ 2.86 µM) | –
C=C/[N+]([O-])=N/CCCCCCCCO[Si](C)(C)C(C)(C)C | <20% | 1.34 µg/mL (≈ 4.26 µM) | –
C=C/[N+]([O-])=N/CCCCCCCC(=O)CCCCCCC(C)C | <20% | 1.17 µg/mL (≈ 3.61 µM) | inhibition (Homo sapiens [21]): Active
C=C/[N+]([O-])=N/CCCCCCCC(=O)CCCCC[C@H](C)CC | <20% | 1.49 µg/mL (≈ 4.59 µM) | –
C=C/[N+]([O-])=N/CCCCCCCCn1cc(CCCCC#N)nn1 | <20% | 0.97 µg/mL (≈ 2.92 µM) | –
C=C/[N+]([O-])=N/CCCCCCCCn1cc(C(C)(C)C)nn1 | <20% | 0.69 µg/mL (≈ 2.24 µM) | inhibition (Homo sapiens [20]): Active
C=C/[N+]([O-])=N/CCCCCCCCn1cc(CC(C)C)nn1 | <20% | 0.83 µg/mL (≈ 2.7 µM) | –
C=C/[N+]([O-])=N/CCCCCCCCn1cc(CCC(C)C)nn1 | <20% | 0.72 µg/mL (≈ 2.24 µM) | –
C=C/[N+]([O-])=N/CCCCCCCCn1cc(-c2ccc(N)cc2)nn1 | <20% | 0.76 µg/mL (≈ 2.22 µM) | –
C=C/[N+]([O-])=N/CCCCCCCCn1cc(CN(Cc2cn(CCCCCCCC/N=[N+](\[O-])C=C)nn2)Cc2cn(CCCCCCCC/N=[N+](\[O-])C=C)nn2)nn1 | <20% | 0.23 µg/mL (≈ 0.285 µM) | inhibition (Homo sapiens [22]): Active
C=C/[N+]([O-])=N/CCCCCCCCn1cc(-c2ccccc2)nn1 | <20% | 0.76 µg/mL (≈ 2.32 µM) | –

— ChEMBL document CHEMBL4364275, “Jietacins, azoxy natural products, as novel NF-κB inhibitors: Discovery, synthesis, biological activity, and mode of action” (Eur J Med Chem, 2019)
